In US5278181A, “Soluble alkyl[5-[amino (phenyl)methyl]-1H-benzimidazol-2-yl] carbamate anthelmintics” (priority 1992, dated 1994):
≈ marks a conversion by molar mass, not a printed value.

Experiments:
[1] = background art; cited from earlier work
[2] = background art; cited from earlier work; remark: listed apart in the source
Aqueous solubility = details: water
adult worms = details: background art; cited from earlier work
microfilariae = details: background art; cited from earlier work

| solubility (Aqueous solubility) [µg/mL] | SMILES | pain and inflammation on injection [1] | absorption [2] | activity against adult worms (macrofilaricidal) (adult worms) | activity against microfilariae (microfilariae) |
| --- | --- | --- | --- | --- | --- |
| 45 (≈ 144 µM) | COC(=O)Nc1nc2cc(C(=O)c3ccc(F)cc3)ccc2[nH]1 [Flubendazole, methyl [5-(4-fluorobenzoyl)-1H-benzimidazol-2-yl]carbamate] | cause pain and inflammation on injection | poorly absorbed |  |  |
|  | Cc1ccc(C(=O)Nc2ccc(S(=O)(=O)O)c3cc(S(=O)(=O)O)cc(S(=O)(=O)O)c23)cc1NC(=O)c1cccc(NC(=O)Nc2cccc(C(=O)Nc3cc(C(=O)Nc4ccc(S(=O)(=O)O)c5cc(S(=O)(=O)O)cc(S(=O)(=O)O)c45)ccc3C)c2)c1 [Suramin] |  |  | macrofilaricidal action |  |
|  | CC[C@H](C)[C@H]1O[C@]2(CC[C@@H]1C)C[C@@H]1C[C@@H](C/C=C(\C)[C@@H](O[C@H]3C[C@H](OC)[C@@H](O[C@H]4C[C@H](OC)[C@@H](O)[C@H](C)O4)[C@H](C)O3)[C@@H](C)/C=C/C=C3\CO[C@@H]4[C@H](O)C(C)=C[C@@H](C(=O)O1)[C@]34O)O2 [ivermectin] |  |  | without effect on adult worms | outstanding activity against microfilariae |
|  | COC(=O)Nc1nc2ccc(C(=O)c3ccccc3)cc2[nH]1 [mebendazole] | cause pain and inflammation on injection | poorly absorbed |  |  |
